Assay [1] has as its target T1, Dictyostelium discoideum NDP kinase inactive variant EI (H122G-F64W) (Dictyostelium discoideum, UniProt P22887, F64W/H122G).
T1 construct: made in house
Briefly: biochemical. The format is binding. On the procedure: (§1) The binding constants were determined at equilibrium by recording the increase in fluorescence (Schneider, 2000).
(§2) Analog binding affinity was measured using a variant of Dd-NDPK (EI) as described (Schneider, 2000). […] The mutation N119S was inserted in EI in order to measure the nucleotide affinity by fluorescence titration.
(§3) Altered bases as compared to the wild type sequence are underlined in bold. Sequences were checked by automatic sequencing. The mutant EI-N119S was obtained by mutation of the previously described F64W-H122G mutated NDP kinase (here called EI) (Schneider 2000).

The target of assay [2] is T2, Dictyostelium discoideum NDP kinase inactive variant EI-N119S (H122G-F64W-N119S) (Dictyostelium discoideum, UniProt P22887, F64W/H122G/N119S).
T2 construct: made in house
T2 sequence (P22887 whole entry F64W/N119S/H122G): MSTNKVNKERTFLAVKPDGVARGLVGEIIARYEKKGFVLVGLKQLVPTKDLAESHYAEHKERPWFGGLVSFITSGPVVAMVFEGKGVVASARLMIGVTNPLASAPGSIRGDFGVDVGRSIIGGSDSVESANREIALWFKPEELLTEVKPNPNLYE
The experiment in a line: biochemical. In kind it is binding. As to conditions: for increase of affinity by Ser (N119S): relative KD, EI versus EI-N119S. The protocol:
as §1, §2, §3

Assay [3] concerns the target T3, human NDP kinase A (NDPK-A) variant L55H (Homo sapiens, UniProt P15531, L55H).
T3 construct: made in house; host or cells: E. coli
The experiment in a line: Pre-steady-state phosphotransfer, fluorescence stopped-flow. The format is biochemical.

In assay [4] the target is T4, Dictyostelium discoideum NDP kinase (Dd-NDPK) variant N119S, SEQ ID NO: 1 (Dictyostelium discoideum, UniProt P22887, N119S).
T4 construct: made in house
T4 sequence (P22887 whole entry N119S): as the sequence (P22887 whole entry F64W/N119S/H122G) above, with W64F, G122H counted along it
Described as above. In kind it is biochemical. As to conditions: for k2/Ks: catalytic efficiency of phosphotransfer, N119S, pre-steady state; for reaction with N119S relative to wild type (times faster): from k2/Ks of Table I.

In assay [5] the target is T5, Dictyostelium discoideum NDP kinase (Dd-NDPK), wild type (Dictyostelium discoideum, UniProt P22887).
T5 construct: made in house
T5 sequence (P22887 whole entry): as the sequence (P22887 whole entry F64W/N119S/H122G) above, with W64F, S119N, G122H counted along it
The assay is described as above. The format is biochemical. As to conditions: catalytic efficiency of phosphotransfer, wt.

Assay [6] deals with T6, Dictyostelium NDP Kinase wt (Dictyostelium discoideum, UniProt P22887).
T6 construct: made in house
T6 sequence (P22887 whole entry): as the sequence (P22887 whole entry F64W/N119S/H122G) above, with W64F, S119N, G122H counted along it
Briefly: Pre-steady-state fluorescence stopped-flow phosphotransfer from nucleoside triphosphates, wild type Dd-NDPK. In kind it is biochemical. The note with it: average of three determinations. On the procedure: as §1
After mixing NDPK (1 μM) and NTP or an analogTP (10-500 μM), the intrinsic protein fluorescence was recorded for 10-200 sec. In each experiment, 400 pairs of data were recorded, and the data from 3-4 identical experiments were averaged and fitted to a number of non-linear analytical equations using the software provided by Hi-Tech.
The data were analyzed using the reaction scheme: [drawing 1]
The rate of this observed single step is: [formula]
and reaches a limiting value (k+2) at NTP saturation. […] Therefore, catalytic efficiencies of phosphorylation (CEphos=k+2/(k−1/k+1)=k+2/KS) were measured, which are equivalent to second order constants and allow a reliable comparison of a variety of NDP kinase substrates.

We go through 2 molecules from patent US20030207830A1, “Mutant NDP kinases for antiviral nucleotide analog activation and therapeutic uses thereof” (priority 2002, published 2003).

In general, Kd refers to a measure of binding affinity in units of concentration. Low values mean tighter binding, high ones weaker binding.

T3 sequence (P15531 whole entry L55H): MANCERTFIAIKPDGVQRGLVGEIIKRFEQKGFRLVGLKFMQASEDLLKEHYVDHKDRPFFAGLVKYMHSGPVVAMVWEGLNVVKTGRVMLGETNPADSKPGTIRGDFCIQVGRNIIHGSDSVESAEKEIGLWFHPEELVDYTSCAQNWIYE
T1 sequence (P22887 whole entry F64W/H122G): as the sequence (P22887 whole entry F64W/N119S/H122G) above, with S119N counted along it

Regarding `Cc1cn([C@H]2C[C@H](N=[N+]=[N-])[C@@H](COP(=O)(O)OP(=O)(O)OP(=O)(O)O)O2)c(=O)[nH]c1=O` [AZT-TP], the values for the Kd in assay [1] and in assay [2] were 30000 nM and 2200 nM, respectively. The “increase of affinity by Ser (N119S)” value in assay [2] turned out to be 15 fold. Besides, the k2/Ks in assay [3] (catalytic efficiency of phosphotransfer, L55H, pre-steady state) came to 930 M⁻¹ s⁻¹; in assay [4], 1100 M⁻¹ s⁻¹; in assay [5] it was 270 M⁻¹ s⁻¹. For the same molecule, in assay [3] (ratio of catalytic efficiencies analog vs natural nucleotide, mutant vs wild type), the “Specificity change (R)” value is given as “(8)”. Also, the “reaction with N119S relative to wild type (times faster)” value in assay [4] was 4 times.

As for `Nc1nc2c(ncn2[C@H]2CC[C@@H](COP(=O)(O)OP(=O)(O)OP(=O)(O)O)O2)c(=O)[nH]1` [ddGTP, dideoxy-GTP], the Kd in assay [1] worked out at 3500 nM. For the same molecule, in assay [2], binding was characterised by a dissociation constant (Kd) of 2000 nM and the “increase of affinity by Ser (N119S)” value is 2 fold. The “k2/Ks wt (catalytic efficiency of phosphotransfer)” value in assay [6] amounted to 2300 M⁻¹ s⁻¹. Also, in assay [4], the k2/Ks is 3500 M⁻¹ s⁻¹ and the “reaction with N119S relative to wild type (times faster)” value is listed as 1.5 times. Moreover, the k2/Ks in assay [5] amounted to 2300 M⁻¹ s⁻¹.
